Earlier results in patent publication US5977138A, “Ether muscarinic antagonists” (Schering Corporation, priority 1997, dated 1999).

Tested on: m2 muscarinic receptor
Details: Baumgold et al., Eur. J. of Pharmacol., 251 (1994) 315-317

## C[C@H]1CC[C@@H]2N(C1)C[C@H]1[C@@H]3C[C@H]4[C@@H](CC(=O)[C@H]5C[C@@H](Cl)CC[C@@]54C)[C@@H]3CC[C@H]1[C@]2(C)O [3-α-chloroimperialine]
  m2 selective muscarinic antagonism: highly selective m2 muscarinic antagonist
